Laboratory results as given in ChEMBL document CHEMBL1201862, “PubChem BioAssay data set” (2004).
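Compound exposure: 48 hours, 5 concentrations, 96-well plates. Here, GI50 denotes the concentration required for 50% inhibition of growth.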 Calls of active or inactive are those of the source. Cut-off read from the data, not from the text of the source: active = GI50 up to about 1.1 µM and inactive = higher.

Columns and labels:
Assay in all cases: NCI tumour cell line growth inhibition, 48 h
[1] = tested on: ACHN
[2] = tested on: NCI-H226
[3] = tested on: HCT-116
[4] = tested on: RXF 393
[5] = tested on: U-251
[6] = tested on: MDA-MB-435
[7] = tested on: K562
[8] = tested on: NCI-H460
[9] = tested on: CCRF-CEM
[10] = tested on: COLO 205
[11] = tested on: SF-268
[12] = tested on: MCF7
[13] = tested on: SW-620
[14] = tested on: HCT-15
[15] = tested on: Malme-3M
[16] = tested on: SR
[17] = tested on: 786-0
[18] = tested on: SK-MEL-28
[19] = tested on: MOLT-4
[20] = tested on: TK-10
[21] = tested on: NCI-H23
[22] = tested on: OVCAR-4
[23] = tested on: MDA-N
[24] = tested on: OVCAR-3
[25] = tested on: IGROV-1
[26] = tested on: HOP-92
[27] = tested on: SF-539
[28] = tested on: MDA-MB-231
[29] = tested on: UACC-257
[30] = tested on: HT-29
[31] = tested on: SK-OV-3
[32] = tested on: OVCAR-8
[33] = tested on: Hs-578T
[34] = tested on: NCI/ADR-RES
[35] = tested on: SK-MEL-2
[36] = tested on: EKVX
[37] = tested on: DU-145
[38] = tested on: SF-295
[39] = tested on: T47D
[40] = tested on: UACC-62
[41] = tested on: BT-549
[42] = tested on: PC-3
[43] = tested on: SNB-19
[44] = tested on: SK-MEL-5
[45] = tested on: M14
[46] = tested on: A549
[47] = tested on: LOX IMVI
[48] = tested on: A498
[49] = tested on: KM12
[50] = tested on: HCC 2998
[51] = tested on: HL-60
[52] = tested on: SN12C
[53] = tested on: OVCAR-5
[54] = tested on: RPMI-8226
[55] = tested on: CAKI-1
[56] = tested on: SNB-75
[57] = tested on: NCI-H522
[58] = tested on: HOP-62
[59] = tested on: UO-31

O=C1/C(=C2\SCC(=O)N2c2ccccc2)SC(=S)N1c1ccccc1
GI50 [1]: 26.2 µM (inactive) | GI50 [2]: 20.5 µM (inactive) | GI50 [3]: 46.3 µM (inactive) | GI50 [4]: 34.4 µM (inactive) | GI50 [5]: 30.4 µM (inactive) | GI50 [6]: 32.1 µM (inactive) | GI50 [7]: 36.1 µM (inactive) | GI50 [8]: 39.1 µM (inactive) | GI50 [9]: 37.2 µM (inactive) | GI50 [10]: 67 µM (inactive) | GI50 [11]: 41.8 µM (inactive) | GI50 [12]: 36.8 µM (inactive) | GI50 [13]: 45.1 µM (inactive) | GI50 [14]: 43 µM | GI50 [15]: 38.2 µM (inactive) | GI50 [16]: 12 µM (inactive) | GI50 [17]: 47.6 µM (inactive) | GI50 [18]: 35.9 µM (inactive) | GI50 [19]: 17.7 µM (inactive) | GI50 [20]: 28.7 µM (inactive) | GI50 [21]: 72.6 µM (inactive) | GI50 [22]: 23.8 µM (inactive) | GI50 [23]: 44.2 µM (inactive) | GI50 [24]: 27.8 µM (inactive) | GI50 [25]: 17.1 µM (inactive) | GI50 [26]: 23.3 µM (inactive) | GI50 [27]: 26.4 µM (inactive) | GI50 [28]: 20.6 µM (inactive) | GI50 [29]: 42.8 µM (inactive) | GI50 [30]: 56.1 µM (inactive) | GI50 [31]: 23.6 µM (inactive) | GI50 [32]: 41.4 µM (inactive) | GI50 [33]: 34.5 µM (inactive) | GI50 [34]: 27 µM (inactive) | GI50 [35]: 27.3 µM (inactive) | GI50 [36]: 30.3 µM (inactive) | GI50 [37]: 34 µM (inactive) | GI50 [38]: 28.1 µM (inactive) | GI50 [39]: 51.2 µM (inactive) | GI50 [40]: 55 µM (inactive) | GI50 [41]: 2.82 µM (inactive) | GI50 [42]: 28.6 µM (inactive) | GI50 [43]: 50.9 µM (inactive) | GI50 [44]: 46.7 µM (inactive) | GI50 [45]: > 100 µM (inactive) | GI50 [46]: 31 µM (inactive) | GI50 [47]: 32.7 µM (inactive) | GI50 [48]: 40.4 µM (inactive) | GI50 [49]: 51.9 µM (inactive) | GI50 [50]: 28.2 µM (inactive) | GI50 [51]: 78.5 µM (inactive) | GI50 [52]: 25.6 µM (inactive) | GI50 [53]: > 100 µM (inactive) | GI50 [54]: 36.3 µM (inactive) | GI50 [55]: 21.1 µM (inactive)

Cc1nn(C(=O)c2ccc(Cl)cc2)c2c1C(c1ccc(O)cc1)SC(=N)N2 (configuration not stated)
GI50 [1]: > 10 µM (inactive) | GI50 [2]: > 10 µM (inactive) | GI50 [3]: > 10 µM (inactive) | GI50 [4]: > 10 µM (inactive) | GI50 [5]: > 10 µM (inactive) | GI50 [6]: > 10 µM (inactive) | GI50 [7]: > 10 µM (inactive) | GI50 [8]: > 10 µM (inactive) | GI50 [9]: > 10 µM (inactive) | GI50 [56]: > 10 µM (inactive) | GI50 [10]: > 10 µM (inactive) | GI50 [11]: > 10 µM (inactive) | GI50 [12]: > 10 µM (inactive) | GI50 [13]: > 10 µM (inactive) | GI50 [14]: > 10 µM | GI50 [15]: > 10 µM (inactive) | GI50 [16]: > 10 µM (inactive) | GI50 [17]: > 10 µM (inactive) | GI50 [18]: > 10 µM (inactive) | GI50 [19]: > 10 µM (inactive) | GI50 [20]: > 10 µM (inactive) | GI50 [21]: > 10 µM (inactive) | GI50 [22]: > 10 µM (inactive) | GI50 [23]: > 10 µM (inactive) | GI50 [24]: > 10 µM (inactive) | GI50 [25]: > 10 µM (inactive) | GI50 [26]: > 10 µM (inactive) | GI50 [27]: > 10 µM (inactive) | GI50 [28]: > 10 µM (inactive) | GI50 [29]: > 10 µM (inactive) | GI50 [30]: > 10 µM (inactive) | GI50 [31]: > 10 µM (inactive) | GI50 [32]: > 10 µM (inactive) | GI50 [33]: > 10 µM (inactive) | GI50 [34]: > 10 µM (inactive) | GI50 [35]: > 10 µM (inactive) | GI50 [36]: > 10 µM (inactive) | GI50 [37]: > 10 µM (inactive) | GI50 [38]: > 10 µM (inactive) | GI50 [39]: > 10 µM (inactive) | GI50 [40]: > 10 µM (inactive) | GI50 [41]: > 10 µM (inactive) | GI50 [57]: > 10 µM (inactive) | GI50 [58]: > 10 µM (inactive) | GI50 [42]: > 10 µM (inactive) | GI50 [43]: > 10 µM (inactive) | GI50 [44]: > 10 µM (inactive) | GI50 [45]: > 10 µM (inactive) | GI50 [46]: > 10 µM (inactive) | GI50 [47]: > 10 µM (inactive) | GI50 [49]: > 10 µM (inactive) | GI50 [50]: > 10 µM (inactive) | GI50 [51]: > 10 µM (inactive) | GI50 [52]: > 10 µM (inactive) | GI50 [53]: > 10 µM (inactive) | GI50 [54]: > 10 µM (inactive) | GI50 [55]: > 10 µM (inactive)

CCOC(=O)Nn1c(C)nnc1-c1ccccc1
GI50 [1]: > 100 µM (inactive) | GI50 [2]: > 100 µM (inactive) | GI50 [3]: > 100 µM (inactive) | GI50 [4]: > 100 µM (inactive) | GI50 [5]: > 100 µM (inactive) | GI50 [6]: > 100 µM (inactive) | GI50 [7]: > 100 µM (inactive) | GI50 [59]: > 100 µM (inactive) | GI50 [8]: > 100 µM (inactive) | GI50 [9]: > 100 µM (inactive) | GI50 [10]: > 100 µM (inactive) | GI50 [11]: > 100 µM (inactive) | GI50 [12]: > 100 µM (inactive) | GI50 [13]: > 100 µM (inactive) | GI50 [14]: > 100 µM | GI50 [15]: > 100 µM (inactive) | GI50 [16]: > 100 µM (inactive) | GI50 [17]: > 100 µM (inactive) | GI50 [19]: > 100 µM (inactive) | GI50 [20]: > 100 µM (inactive) | GI50 [21]: > 100 µM (inactive) | GI50 [22]: > 100 µM (inactive) | GI50 [23]: > 100 µM (inactive) | GI50 [24]: > 100 µM (inactive) | GI50 [25]: > 100 µM (inactive) | GI50 [26]: > 100 µM (inactive) | GI50 [27]: > 100 µM (inactive) | GI50 [28]: > 100 µM (inactive) | GI50 [29]: > 100 µM (inactive) | GI50 [30]: > 100 µM (inactive) | GI50 [31]: 61.7 µM (inactive) | GI50 [32]: > 100 µM (inactive) | GI50 [33]: > 100 µM (inactive) | GI50 [34]: > 100 µM (inactive) | GI50 [35]: > 100 µM (inactive) | GI50 [36]: > 100 µM (inactive) | GI50 [37]: > 100 µM (inactive) | GI50 [38]: > 100 µM (inactive) | GI50 [39]: > 100 µM (inactive) | GI50 [40]: > 100 µM (inactive) | GI50 [41]: > 100 µM (inactive) | GI50 [57]: > 100 µM (inactive) | GI50 [42]: > 100 µM (inactive) | GI50 [43]: > 100 µM (inactive) | GI50 [44]: > 100 µM (inactive) | GI50 [45]: > 100 µM (inactive) | GI50 [46]: > 100 µM (inactive) | GI50 [47]: > 100 µM (inactive) | GI50 [48]: > 100 µM (inactive) | GI50 [49]: > 100 µM (inactive) | GI50 [50]: > 100 µM (inactive) | GI50 [52]: > 100 µM (inactive) | GI50 [53]: > 100 µM (inactive) | GI50 [54]: > 100 µM (inactive) | GI50 [55]: > 100 µM (inactive)
